In US8808737B2 (Endo Pharmaceuticals Inc., priority 2007, dated 2014):

Legend:
[1] = Example 5: plasma pharmacokinetics of oxymorphone and metabolites after EN3202 in renal impairment vs healthy controls; details: for Mean bioavailability ratio (90% confidence interval) for AUC relative to controls / Mean bioavailability ratio (90% confidence interval) for Cmax relative to controls: ln-transformed; for AUC: AUC in plasma (mean, untransformed); for AUC(0-t): AUCT in plasma (mean, untransformed); for Cmax: Cmax in plasma (mean, untransformed); for half-life: t½, terminal elimination half-life in plasma (mean)
Experimental: (§1) Attempts were made to match controls with the renal impaired patients with respect to age, gender, and weight. […] Naltrexone (50 mg) was administered on the evening prior to administration of the EN3202 dose.
In order to protect the subjects from potential opioid-related adverse events, a single 50-mg dose of the opioid antagonist ReVia® (naltrexone HCl) was administered at 20:00 the evening prior to administration of test medication. […] Subjects continued fasting until four (4) hours after dose administration. The subjects remained in an upright posture (sitting or standing) for 1 hour after dose administration. All doses were administered with 240 mL of water (room temperature), and the subjects were instructed to drink all the water.
(§2) Plasma and urine pharmacokinetic variables were calculated from the concentration data using standard, non-compartmental methods as outlined in the following table.
All pharmacokinetic results are summarized using appropriate descriptive statistics. Continuous variables were compared between renally impaired and control groups using appropriate parametric statistics. 90% confidence intervals were calculated for the differences or ratios between the renally impaired and control groups. In addition, the association between oral clearance (and other pharmacokinetic variables) and the severity of renal insufficiency (based on creatinine clearance) was explored.

[2] = Example 5: urinary excretion of oxymorphone and metabolites after EN3202 in renal impairment; details: for Mean (SD) Percent of Dose Recovered in Urine (0-120 hours): single oral 20-mg dose of EN3202; for half-life: human, urine, oral, 20 mg, Mean urinary elimination half-life
Experimental: as §1
Each subject was to be instructed to void at the end of each interval (so that each collection interval began with an empty bladder). The void prior to administration of the test medication (time 0) served as the pre-dose blank and was not be included in the collection container.
as §2

[3] = Example 5: correlation of oxymorphone and metabolite plasma AUC / oral clearance with creatinine clearance; type: in vivo, human; details: linear regression
Description: Creatinine clearance (ClCR) was estimated at screening using the following Cockroft and Gault^8 equation: […]
All pharmacokinetic results are summarized using appropriate descriptive statistics.
The potential association between plasma AUC and creatinine clearance was explored using linear regression techniques and the results are summarized in Table 36 and FIG. 16.

[4] = Pain levels (VAS, categorical scale) vs plasma oxymorphone and 6-hydroxyoxymorphone after a single dose; type: in vivo, human; details: single dose of oxymorphone, FIGS. 1-4
Experimental: For these tests, pain was measured using a Visual Analog Scale (VAS) or a Categorical Scale. The VAS scales consisted of a horizontal line, 100 mm in length. The left-hand end of the scale (0 mm) was marked with the descriptor “No Pain” and the right-hand end of the scale (100 mm) was marked with the descriptor “Extreme Pain”. Patients indicated their level of pain by making a vertical mark on the line. The VAS score was equal to the distance (in mm) from the left-hand end of the scale to the patient's mark. For the categorical scale, patients completed the following statement, “My pain at this time is” using the scale None=0, Mild=1, Moderate=2, or Severe=3.

[5] = in vivo; cited from earlier work
[6] = EN3202 20 mg, mild renal impairment
[7] = EN3202 20 mg, moderate renal impairment
[8] = EN3202 20 mg, severe renal impairment
[9] = human, plasma, oral, 20 mg, single 20 mg dose of EN3202, Healthy Controls
[10] = human, plasma, oral, 20 mg, single 20 mg dose of EN3202, Mild Impairment
[11] = human, plasma, oral, 20 mg, single 20 mg dose of EN3202, Moderate Impairment
[12] = human, plasma, oral, 20 mg, single 20 mg dose of EN3202, Severe Impairment
[13] = single 20 mg dose of EN3202, Moderate Impairment
[14] = single 20 mg dose of EN3202, Severe Impairment
[15] = AUC normalized for body weight vs creatinine clearance
[16] = oral clearance vs creatinine clearance
[17] = plasma AUC vs creatinine clearance

CN1CC[C@]23c4c5ccc(O)c4O[C@H]2C(=O)CC[C@@]3(O)[C@H]1C5 [Oxymorphone, 14-hydroxydihydromorphinone, reference compound]
Mean bioavailability ratio (90% confidence interval) for AUC relative to controls [1, 6]: 1.2559 (0.8566-1.8414)
Mean bioavailability ratio (90% confidence interval) for Cmax relative to controls [1, 6]: 1.3772 (0.9359-2.0265)
Mean bioavailability ratio (90% confidence interval) for AUC relative to controls [1, 7]: 1.5722 (1.0723-2.3051)
Mean bioavailability ratio (90% confidence interval) for Cmax relative to controls [1, 7]: 1.6494 (1.1209-2.4270)
Mean AUC increased relative to healthy controls [1, 8]: 1.7 fold
Mean bioavailability ratio (90% confidence interval) for AUC relative to controls [1, 8]: 1.6529 (1.1274-2.4234)
Mean bioavailability ratio (90% confidence interval) for Cmax relative to controls [1, 8]: 1.8042 (1.2261-2.6549)
Mean increase in plasma AUC values relative to healthy controls ([1]; EN3202 20 mg, subjects with creatinine clearance values, 30 mL/min): approximately 1.8 fold
Tmax ([1]; human, plasma, oral, 20 mg): 3.5 h
AUC [1, 9]: 18.9 ng·h/mL
AUC [1, 10]: 21.7 ng·h/mL
AUC [1, 11]: 27.9 ng·h/mL
AUC [1, 12]: 34.5 ng·h/mL
AUC(0-t) [1, 9]: 15.8 ng·h/mL
AUC(0-t) [1, 10]: 19 ng·h/mL
AUC(0-t) [1, 11]: 26.1 ng·h/mL
AUC(0-t) [1, 12]: 29.7 ng·h/mL
Cmax [1, 9]: 1.16 ng/mL
Cmax [1, 10]: 1.47 ng/mL
Cmax [1, 11]: 1.75 ng/mL
Cmax [1, 12]: 2.04 ng/mL
half-life [1, 9]: 13.5 h
half-life [1, 10]: 12.4 h
half-life [1, 12]: 13.3 h
CLo, clearance after oral administration (mean) ([1]; single 20 mg dose of EN3202, Healthy Controls): 22.07 L/min
CLo, clearance after oral administration (mean) ([1]; single 20 mg dose of EN3202, Mild Impairment): 16.14 L/min
CLo, clearance after oral administration (mean) [1, 13]: 13.53 L/min
t½, terminal elimination half-life in plasma (mean) [1, 13]: 9.92 h
AUC in plasma (mean, untransformed) [1, 14]: 32.46 ng·h/mL
CLo, clearance after oral administration (mean) [1, 14]: 13.79 L/min
Tmax in plasma (median) [1, 14]: 2.0 h
Mean percentage of the administered dose excreted in the urine ([2]; EN3202 20 mg, 0-120 hours, severe renal impairment): 0.38%
Mean percentage of the dose excreted in the urine unchanged, reduced relative to healthy controls [2, 8]: approximately 50%
Mean (SD) Percent of Dose Recovered in Urine (0-120 hours) ([2]; healthy controls): 0.77 (0.36) %
half-life ([2]; EN3202 20 mg, healthy controls): 12.5 h
half-life [2, 6]: 12.1 h
half-life [2, 7]: 13.9 h
half-life [2, 8]: 21 h
Mean (SD) Percent of Dose Recovered in Urine (0-120 hours) ([2]; subjects with mild renal impairment): 1.37 (2.10) %
Mean (SD) Percent of Dose Recovered in Urine (0-120 hours) ([2]; subjects with moderate renal impairment): 0.66 (0.29) %
Mean (SD) Percent of Dose Recovered in Urine (0-120 hours) ([2]; subjects with severe renal impairment): 0.38 (0.19) %
AUC/wt vs. CLCR: R-square [3, 15]: 0.2898
AUC/wt vs. CLCR: Slope [3, 15]: −0.0013
CL/F vs. CLCR: R-square [3, 16]: 0.2592
CL/F vs. CLCR: Slope [3, 16]: 0.1229
AUC vs. CLCR: R-square [3, 17]: 0.2400
AUC vs. CLCR: Slope [3, 17]: −0.1852
Relation between pain relief and blood plasma level [4]: there is a correlation
Oral bioavailability [5]: about 10%
